{"source": "paper PMC12377202", "about": "“Design, synthesis, and cytotoxic evaluation of quinazoline-based derivatives as VEGER-2 inhibitors: comparative study against EGFR kinase activity, induction of apoptosis, and molecular docking study” (RSC Advances, 2025)", "origin": "cited, not measured here", "key": {"MCF-7": {"tested_on": "MCF-7", "details": "cited from earlier work"}, "VEGFR-2 kinase": {"biological_target": "VEGFR-2 kinase", "details": "cited from earlier work"}, "HepG2": {"tested_on": "HepG2", "details": "cited from earlier work"}, "PC3": {"tested_on": "PC3", "details": "cited from earlier work"}, "WI-38": {"tested_on": "WI-38", "details": "read-out: IC50 normal WI-38 cells; cited from earlier work"}}, "note": "Read-outs that look alike come from different tables or passages of the source.", "data": [{"smiles": "O=C(Nc1ccc(Oc2nc(Cl)nc3ccccc23)cc1)c1cccnc1", "note": "[VIII]", "values": [{"measurement": "IC50 MCF-7", "setting": "MCF-7", "result": 33.40, "unit": "mg/L"}, {"measurement": "IC50", "setting": "VEGFR-2 kinase; read-out: VEGFR-2 inhibition IC50", "result": 0.06, "unit": "µM"}, {"measurement": "IC50 HepG2", "setting": "HepG2", "result": 24.10, "unit": "mg/L"}, {"measurement": "IC50 PC3", "setting": "PC3", "result": 40.90, "unit": "mg/L"}]}, {"smiles": "O=C(CSc1nc2ccc([N+](=O)[O-])cc2c(=O)n1-c1ccccc1)NNC(=O)c1ccccc1", "note": "[VII]", "values": [{"measurement": "IC50 MCF-7", "setting": "MCF-7", "result": 30.85, "unit": "mg/L"}, {"measurement": "IC50", "setting": "WI-38", "result": 146, "unit": "µM"}, {"measurement": "IC50", "setting": "VEGFR-2 kinase; read-out: IC50 against VEGFR-2 kinase", "result": "4.6 ± 0.06", "unit": "µM"}, {"measurement": "IC50 HepG2", "setting": "HepG2", "result": 17.23, "unit": "mg/L"}, {"measurement": "IC50 PC3", "setting": "PC3", "result": 26.10, "unit": "mg/L"}]}]}
